In patent publication US20250302862A1, “SMALL RNA DRUG FOR INHIBITING ACTIVITY OF CANCER CELLS” (Institute of Basic Medical Sciences Chinese Academy of …, priority 2022, published 2025):

Legend:
[1] = system: primary lung cancer Kras^LSL-G12Dp53^fl/fl (KP) mouse model; assay: Transcriptome sequencing of lung tissue, pathway clustering of differentially expressed genes; format: in vivo; conditions: KP mouse lung tissue after 30 days of dosing, metacore pathway clustering, vs NC group
Excerpt: The mouse model of primary lung cancer was Kras^LSL-G12Dp53^fl/fl (KP). Mice were weighed and assigned to the NC group and HQi-sRNA-2 group randomly. The NC group was the negative control, in which a sphingosine(d18:1)-NC-sRNA herbal medicine delivery system was constructed from NC-sRNA. The HQi-sRNA-2 group was the experimental group, in which a sphingosine(d18:1)-HQi-sRNA-2 herbal medicine delivery system was constructed from HQi-sRNA-2. The herbal medicine delivery system was constructed by heating and mixing 10 nmol of sRNA, 100 ug of sphingosine(d18:1) and 300 ul of sterile enzyme-free water in a water bath at 90° C. for 15 minutes. Mouse lung tissue was collected after 30 days of dosing, and the total RNA was extracted and subjected to non-strand-specific transcriptome sequencing. The differentially expressed genes in the experimental group and the control group were analyzed and calculated by a bioinformatics software, and the biological pathways in which the differentially expressed genes mainly functioned were analyzed by clustering using the metacore database. The pathways of the differentially expressed genes were visualized by the visualization software package ggplot2.
(§1) The mouse model of primary lung cancer was Kras^LSL-G12Dp53^fl/fl (KP). Mice were weighed and assigned to the NC group and MDM-sRNA-39 group randomly. […] The differentially expressed genes in the experimental group and the control group were analyzed and calculated by a bioinformatics software, and the biological pathways in which the differentially expressed genes mainly functioned were analyzed by clustering using the metacore database. […]
as §1, with “(KP).” for “(KP). Mice were weighed and assigned to the NC group and MDM-sRNA-39 group randomly.”

[2] = system: breast cancer MCF7 cells; assay: Concentration-dependent proliferation inhibition, MTS; format: cell-based, human; conditions: gradient 0.01-100 noml/L, MTS after 48 h
Method: (§2) 1) Breast cancer MCF7 cells, breast cancer MDA-MB-231 cells, gastric cancer AGS cells, pancreatic cancer HS766T cells, pancreatic cancer ASPC-1 cells, and prostate cancer PC-3 cells with a cell density of more than 90% in 10 cm^2 plates were plated in 96-well according to the cell growth rate. Transfection was performed after 12 h, and the groups (3 wells per group) were divided as follows: • blank control group: 20 uL of opti-MEM • negative control group (NC group) and experimental group: • A. 10 uL of opti-MEM and 0.2 uL of iMax were mixed well for 5 min • B. 10 uL of opti-MEM and small RNA were mixed well (the concentration gradient of experimental group was set as: 0.01 noml/L, 0.03 noml/L, 0.1 noml/L, 0.39 noml/L, 0.78 noml/L, 1.56 noml/L, 3.125 noml/L, 6.25 noml/L, 12.5 noml/L, 25 noml/L, 50 noml/L, 100 noml/L; the final concentration of sRNA in NC group was 100 noml/L) • C. solution A and solution B were mixed well and let stand for 15 min, and then was added at a 20 uL system • Note: 100 uL of nuclease-free water was added to 2 nmol of small RNA dry powder for dissolution at a storage concentration of 20 umol/L
(§3) 2) Detection of cell viability: MTS detection was performed after 48 h.
(§4) Formulation of MTS detection solution was as follows: opti-MEM:MTS A solution:MTS B solution=100:20:1. After removing the supernatant, 100 uL of MTS detection solution was added to each well and incubated for 0.5-2 h. Absorbance values at wavelengths of 490 nm and 630 nm were measured in a microplate reader.
as §2, with “dishes” for “plates”, “96-well plates” for “96-well”

[3] = system: pancreatic cancer HS766T cells; assay: as above; format: cell-based, human; conditions: gradient 0.01-100 noml/L, MTS after 48 h
Method: as §2, §3, §4
as §2, with “dishes” for “plates”, “96-well plates” for “96-well”

[4] = system: prostate cancer PC-3 cells; assay: as above; format: cell-based, human; conditions: gradient 0.01-100 noml/L, MTS after 48 h
Method: as §2, §3, §4
as §2, with “dishes” for “plates”, “96-well plates” for “96-well”

[5] = system: pancreatic cancer ASPC-1 cells; assay: as above; format: cell-based, human; conditions: gradient 0.01-100 noml/L, MTS after 48 h
Method: as §2, §3, §4
as §2, with “dishes” for “plates”, “96-well plates” for “96-well”

[6] = system: gastric cancer AGS cells; assay: as above; format: cell-based, human; conditions: gradient 0.01-100 noml/L, MTS after 48 h
Method: as §2, §3, §4
as §2, with “dishes” for “plates”, “96-well plates” for “96-well”

“MDM-sRNA-163: small RNA derived from Maytenus hookeri, sequence UGACUCUAGUCCGACUUUGUGAAAUGACU (listed as RNA, chemistry not given here)” was tested, and the “functions of genes down-regulated at transcriptional level” value (from here on “functions of genes down-regulated”) [1] was “mainly clustered in oncology, immunology, and other related biological pathways”, the “proliferation-inhibiting function (cell activity, MTS)” value (“proliferation-inhibiting function” below) [2] was “concentration-dependent” and the “proliferation-inhibiting function” value [3] was “concentration-dependent”. The “proliferation-inhibiting function” value [4] was “concentration-dependent”, the “proliferation-inhibiting function” value [5] was “concentration-dependent” and the “proliferation-inhibiting function” value [6] was “concentration-dependent”.
“HQi-sRNA-2: small RNA derived from Scutellaria baicalensis, sequence AUGGUUCGAUUCCGGAGAGGG (listed as RNA, chemistry not given here)” was tested, and the “functions of genes down-regulated” value [1] was “mainly clustered in oncology, immunology and other related biological pathways”.
For “MDM-sRNA-39: small RNA derived from Maytenus hookeri, sequence GGGAUUGUAGUUCAAUUGGUCAGAGCACC (listed as RNA, chemistry not given here)”, the “functions of genes down-regulated” value [1] was “mainly clustered in oncology, immunology and other related biological pathways”, the “proliferation-inhibiting function” value [2] was “concentration-dependent” and the “proliferation-inhibiting function” value [3] was “concentration-dependent”. The “proliferation-inhibiting function” value [4] was “concentration-dependent”, the “proliferation-inhibiting function” value [5] was “concentration-dependent” and the “proliferation-inhibiting function” value [6] was “concentration-dependent”.
